Measurements taken from patent publication US20020086278A1, “CHROMOGENIC MEDIA CONTAINING BLOOD OR HEMIN” (priority 1999, published 2002).
Structures can show the parent of a compound that is named as a salt. Where two headings read alike, the source gives them in different places.

What was measured:
[1] = tested on: Group D Strep / Enterococcus; experiment: Example 3: colony color on chromogenic TSA II with 5% sheep blood (chromogen in medium); conditions: 7 of 7 strains
[2] = tested on: N. gonorrhoeae 35201; experiment: Example 1: growth and colony color on plates surface-spread with chromogen; type: cell-based; conditions: for Growth: Substrate on Choclate II Agar, N. gono. 35201; for Substrates Producing Growth Inhibition: Summary of Table I, N. gonorrhoeae 35201
[3] = tested on: Branhamella catarrhalis 25238; experiment: as above; type: cell-based; conditions: for Growth: B. catt 25258
[4] = tested on: Streptococcus agalactiae (stag); experiment: Example 3: colony color on chromogenic TSA II with 5% sheep blood (chromogen in medium); type: cell-based
[5] = tested on: Streptococcus pneumoniae 6303; experiment: Example 1: growth and colony color on plates surface-spread with chromogen; type: cell-based; conditions: for Growth / Color: S. pneu: 6303
[6] = tested on: Salmonella spp. (sasp); type: cell-based; conditions: for Colony Color: CO2
[7] = tested on: S. agalactiae 13813; experiment: Example 2: effect of incubation conditions on colony color formation; type: cell-based, Streptococcus agalactiae; conditions: 0.004 g/plate, 24 h, CO2
[8] = tested on: S. agalactiae BD747; experiment: as above; type: cell-based, Streptococcus agalactiae; conditions: 0.004 g/plate, 24 h, CO2
[9] = tested on: S. agalactiae 4768; experiment: as above; type: cell-based, Streptococcus agalactiae; conditions: 0.004 g/plate, 24 h, CO2
[10] = tested on: S. agalactiae BD11586; experiment: as above; type: cell-based, Streptococcus agalactiae; conditions: Chocolate II Agar, 0.004 g/plate; 24 h, CO2
[11] = tested on: Strep Grp G 12394; experiment: as above; type: cell-based, Streptococcus group G; conditions: 0.004 g/plate, 24 h, CO2
[12] = tested on: S. agalactiae 6638; experiment: as above; type: cell-based, Streptococcus agalactiae; conditions: 0.004 g/plate, 24 h, CO2
[13] = tested on: Strep Grp C 12388; experiment: as above; type: cell-based, Streptococcus group C; conditions: 0.004 g/plate, 24 h, CO2
[14] = tested on: Strep Grp G 27961; experiment: as above; type: cell-based, Streptococcus group G; conditions: 0.004 g/plate, 24 h, CO2
[15] = tested on: C. perfringens 13124; type: cell-based, Clostridium perfringens; conditions: TSA II 5% Sheep Blood, 0.004 g/plate; 5 d, ANA
[16] = tested on: 55 strains; experiment: Example 3: color, hemolytic activity and growth over all 55 strains; type: cell-based; conditions: Gram-positives
From the text: Steers, E. et al., Antibiot.

[17] = tested on: S. pneumoniae 6303; experiment: Example 2: effect of incubation conditions on colony color formation; type: cell-based, Streptococcus pneumoniae; conditions: TSA II 5% Sheep Blood, 0.004 g/plate; 24 h, CO2
[18] = tested on: S. epidermidis 12228; experiment: Example 1: growth and colony color on plates surface-spread with chromogen; type: cell-based; conditions: for Color: S. epi 12228
[19] = Solubility of chromogen in DMSO; type: physicochemical; conditions: 0.08g in 1.0 ml DMSO
Method: In this series of experiments, 0.08g of each chromogen indicated below was added to 1.0 ml DMSO and thoroughly mixed.

[20] = tested on: H. influenzae 10211; experiment: Example 2: effect of incubation conditions on colony color formation; type: cell-based
[21] = tested on: S. epidermidis 12228; experiment: as above; type: cell-based, Staphylococcus epidermidis
[22] = tested on: Neisseria meningitidis 13090; experiment: Example 1: growth and colony color on plates surface-spread with chromogen; type: cell-based
[23] = tested on: N. meningitidis 13090; type: cell-based; conditions: Chocolate II Agar, 0.004 g/plate; 24 h, CO2
[24] = tested on: S. aureus 25923; experiment: Example 2: effect of incubation conditions on colony color formation; type: cell-based, Staphylococcus aureus
[25] = tested on: Haemophilus influenzae 10211; experiment: Example 1: growth and colony color on plates surface-spread with chromogen; type: cell-based; conditions: Substrate on Choclate II Agar, H. influ. 10211
[26] = tested on: N. sicca 29193; experiment: as above; type: cell-based
[27] = tested on: H. influenzae 35540; experiment: Example 2: effect of incubation conditions on colony color formation; type: cell-based
[28] = tested on: Haemophilus influenzae 35540; experiment: Example 1: growth and colony color on plates surface-spread with chromogen; type: cell-based; conditions: for Color: Substrate on Choclate II Agar, H. influ. 35540
[29] = tested on: bacterial test strains of Example 1; experiment: Example 1: inhibitory effect over all test strains; type: cell-based; conditions: Example 1, all test strains
[30] = tested on: N. sicca 29193; experiment: Example 2: effect of incubation conditions on colony color formation; type: cell-based
[31] = tested on: Staphylococcus aureus 25923; experiment: Example 1: growth and colony color on plates surface-spread with chromogen; type: cell-based; conditions: S. aureus 25923
[32] = tested on: S. mitis 6249; experiment: Example 2: effect of incubation conditions on colony color formation; type: cell-based, Streptococcus mitis; conditions: TSA II 5% Sheep Blood, 0.004 g/plate; 24 h, CO2
[33] = chromogenic TSA II with 5% Sheep Blood, 0.1 g/l, 3 strains tested
[34] = chromogenic TSA II with 5% Sheep Blood, 0.1 g/l, 2 strains tested
[35] = Substrate on Choclate II Agar, N. mening. 13090
[36] = Summary of Table I, S. pneumoniae 6303

## OC[C@H]1O[C@@H](Oc2c[nH]c3ccc(Br)c(Cl)c23)[C@H](O)[C@@H](O)[C@@H]1O [X-Glucoside, 5-Br-4-Cl-3-indolyl-β-D-glucopyranoside]
[1]
  Colony Color: blue
[2]
  Growth: <
[3]; TSA Plain
  Growth: <
[4]; Group B Strep on X-glucoside TSA II
  Colony hemolytic activity: slightly reduced
[4]; Group B Strep, 3 of 3 strains, X-glucoside TSA II
  Colony Color: blue
[4]; [33]
  Colony Color (Summary): +
[4]; on X-glucoside TSA II
  CAMP test: works well
[4]; stag 4768, air, 21 h
  Colony Color: lb
[5]; TSA Plain
  Growth: <
[6]; [34]
  Colony Color (Summary): 0
[6]; saty 19430, 18 h
  Colony Color: 0
[6]; saty 19430, 21 h
  Colony Color: 0
[6]; satym 14028, 18 h
  Colony Color: 0
[6]; satym 14028, 21 h
  Colony Color: 0

## O=C(O)[C@H]1O[C@@H](Oc2c[nH]c3ccc(Br)c(Cl)c23)[C@H](O)[C@@H](O)[C@@H]1O [X-Glucuro, X-Glucuronide]
[7]; Chocolate II Agar
  Colony Color: blue (d)
[7]; TSA II 5% Sheep Blood
  Colony Color: blue (d)
[8]; Chocolate II Agar
  Colony Color: blue (l)
[8]; TSA II 5% Sheep Blood
  Colony Color: grey blue
[2]
  Substrates Producing Growth Inhibition: X-Glucuro
[9]; Chocolate II Agar
  Colony Color: blue (l)
[9]; TSA II 5% Sheep Blood
  Colony Color: blue (l)
[3]; TSA Plain
  Growth: >>
[4]; [33]
  Colony Color (Summary): 0
[10]
  Colony Color: blue (vl)
[11]; Chocolate II Agar
  Colony Color: blue (d)
[11]; TSA II 5% Sheep Blood
  Colony Color: grey blue
[12]; Chocolate II Agar
  Colony Color: blue (m)
[12]; TSA II 5% Sheep Blood
  Colony Color: blue (m)
[13]; Chocolate II Agar
  Colony Color: blue (d)
[13]; TSA II 5% Sheep Blood
  Colony Color: blue (d)
[6]; [34]
  Colony Color (Summary): 0
[6]; saty 19430, 18 h
  Colony Color: 0
[6]; satym 14028, 18 h
  Colony Color: 0
[14]; Chocolate II Agar
  Colony Color: blue (d)
[14]; TSA II 5% Sheep Blood
  Colony Color: blue (d)

## OC[C@H]1O[C@@H](Oc2c[nH]c3ccc(Br)c(Cl)c23)[C@H](O)[C@@H](O)[C@H]1O [X-Gal, 5-Br-4-Cl-3-indolyl-β-D-galactopyranoside]
[2]
  Growth: <
[4]; [33]
  Colony Color (Summary): 0
[4]; stag 4768, CO2, 21 h
  Colony Color: 0
[4]; stag 4768, air, 21 h
  Colony Color: 0
[4]; stag 12386, CO2, 21 h
  Colony Color: 0
[4]; stag 12386, CO2, 24 h
  Colony Color: 0
[4]; stag 12386, air, 24 h
  Colony Color: 0
[15]
  Colony Color: blue (m)
[16]
  Usefulness for Gram-positives: not particularly useful
[17]
  Colony Color: blue (l)
[5]; TSA II 5SB
  Color: light blue
[6]; [34]
  Colony Color (Summary): 0
[6]; saty 19430, 21 h
  Colony Color: 0
[6]; satym 14028, 21 h
  Colony Color: 0

## O=P(O)(O)Oc1c[nH]c2cc(Cl)c(Br)cc12 [Mag-Phos, 5-Br-6-Cl-3-indolyl-phosphate, p-touidine salt]
[18]; Choc II
  Color: purple
[18]; Summary of Table I, S. epidermidis 12228
  Substrates Producing Color: Mag-phos
[18]; TSA II 5SB
  Color: purple
[18]; TSA Plain
  Color: purple
[19]
  Solubility / appearance of solution in DMSO: clear and light orange in color
[2]
  Substrates Producing Growth Inhibition: Mag-phos
[3]; Summary of Table I, B. catarrhalis 25238
  Substrates Producing Growth Inhibition: Mag-Phos
[3]; TSA II 5SB
  Growth: <<
[20]
  Colony Color: purple (m)
[4]
  Colony Color: lp
  Colony Color (Summary): +
[21]
  Colony Color: purple (m)
[22]
  Growth: = NC
[22]; [35]
  Color: colorless
[23]
  Colony Color: NC (col
[24]
  Colony Color: purple (m)
[25]
  Color: purple
[25]; listed as Mag-phos
  Color: dark purple
[26]; Substrate on Choclate II Agar, N. sicca. 29193
  Color: purple
[26]; Summary of Table I, N. sicca 29193
  Substrates Producing Color: Mag-phos
[27]
  Colony Color: purple (m)
[28]
  Color: purple
[28]; listed as Mag-phos
  Color: dark purple
[28]; Summary of Table I, H. influenzae 35540, 10211
  Substrates Producing Color: Mag-phos
[29]
  Inhibitory effect: most inhibitory effect
[5]; [36]
  Substrates Producing Growth Inhibition: Mag-phos
[5]; TSA II 5SB
  Growth: <
[30]
  Colony Color: purple (m)
[6]
  Colony Color (Summary): +
[31]; Choc II
  Color: purple
[31]; Summary of Table I
  Substrates Producing Color: Mag-phos
[31]; TSA II 5SB
  Color: purple
[31]; TSA Plain
  Color: purple

## CC(=O)N[C@H]1[C@H](Oc2c[nH]c3ccc(Br)c(Cl)c23)O[C@H](CO)[C@H](O)[C@@H]1O [X-Acglmn, 5-Br-4-Cl-3-indolyl-N-Acetyl-β-D-galactosaminide]
[1]
  Colony Color: dark blue
[4]; [33]
  Colony Color (Summary): 0
[4]; stag 4768, CO2, 21 h
  Colony Color: 0
[4]; stag 4768, air, 21 h
  Colony Color: 0
[4]; stag 12386, CO2, 21 h
  Colony Color: 0
[4]; stag 12386, CO2, 24 h
  Colony Color: 0
[4]; stag 12386, air, 24 h
  Colony Color: 0
[15]
  Colony Color: blue (l)
[22]; [35]
  Growth: <
[22]; Summary of Table I, N. meningitidis 13090
  Substrates Producing Growth Inhibition: Slight inhib w/ X-
[32]
  Colony Color: blue (vl)
[17]
  Colony Color: blue (l)
[5]; [36]
  Substrates Producing Color: X-Acglmn (TSA II
[5]; TSA II 5SB
  Color: blue
[6]; [34]
  Colony Color (Summary): 0
[6]; saty 19430, 18 h
  Colony Color: 0
[6]; saty 19430, 21 h
  Colony Color: 0
[6]; satym 14028, 18 h
  Colony Color: 0
[6]; satym 14028, 21 h
  Colony Color: 0
